Active and inactive are the calls of the source. The rule behind the calls is not given here.
What was measured:
[1] = tested on: BV-2; test: Antiinflammatory activity in mouse BV2 cells assessed as inhibition of LPS/IFNgamma-induced PGE2 production at 2 uM after 24 hrs by enzyme immunoassay; format: functional, cell-based
[2] = Antiinflammatory activity in mouse BV2 cells assessed as LPS/IFNgamma-induced COX2 expression at 4 uM after 24 hrs by Western blot; format: functional, BV-2
[3] = tested on: BV-2; test: Inhibition of IKK in mouse BV2 cells assessed as reduction in LPS/IFNgamma-induced IkappaB degradation at 0.5 to 4 uM pre-incubated for 30 mins before LPS/IFNgamma challenge for 1 hr by Western blot method; format: cell-based
[4] = tested on: BV-2; test: Inhibition of IKK in mouse BV2 cells assessed as LPS/IFNgamma-induced IkappaB phosphorylation level at 2 uM pre-incubated for 30 mins before LPS/IFNgamma challenge for 1 hr by Western blot method; format: cell-based; set-up: scale not given: the % may be the effect or the level left
[5] = tested on: BV-2; test: Inhibition of IKK in mouse BV2 cells assessed as LPS/IFNgamma-induced IkappaB phosphorylation level at 4 uM pre-incubated for 30 mins before LPS/IFNgamma challenge for 1 hr by Western blot method; format: cell-based; set-up: scale not given: the % may be the effect or the level left
[6] = target: T1, Inhibitor of nuclear factor kappa-B kinase subunit alpha (Mus musculus) (UniProt Q60680); test: Inhibition of LPS/IFNgamma-induced IKKalpha phosphorylation in mouse BV2 cells at 1 to 4 uM pre-incubated for 30 mins before LPS/IFNgamma challenge for 1 hr by Western blot method; format: cell-based; conditions: BV-2
T1 sequence (whole entry): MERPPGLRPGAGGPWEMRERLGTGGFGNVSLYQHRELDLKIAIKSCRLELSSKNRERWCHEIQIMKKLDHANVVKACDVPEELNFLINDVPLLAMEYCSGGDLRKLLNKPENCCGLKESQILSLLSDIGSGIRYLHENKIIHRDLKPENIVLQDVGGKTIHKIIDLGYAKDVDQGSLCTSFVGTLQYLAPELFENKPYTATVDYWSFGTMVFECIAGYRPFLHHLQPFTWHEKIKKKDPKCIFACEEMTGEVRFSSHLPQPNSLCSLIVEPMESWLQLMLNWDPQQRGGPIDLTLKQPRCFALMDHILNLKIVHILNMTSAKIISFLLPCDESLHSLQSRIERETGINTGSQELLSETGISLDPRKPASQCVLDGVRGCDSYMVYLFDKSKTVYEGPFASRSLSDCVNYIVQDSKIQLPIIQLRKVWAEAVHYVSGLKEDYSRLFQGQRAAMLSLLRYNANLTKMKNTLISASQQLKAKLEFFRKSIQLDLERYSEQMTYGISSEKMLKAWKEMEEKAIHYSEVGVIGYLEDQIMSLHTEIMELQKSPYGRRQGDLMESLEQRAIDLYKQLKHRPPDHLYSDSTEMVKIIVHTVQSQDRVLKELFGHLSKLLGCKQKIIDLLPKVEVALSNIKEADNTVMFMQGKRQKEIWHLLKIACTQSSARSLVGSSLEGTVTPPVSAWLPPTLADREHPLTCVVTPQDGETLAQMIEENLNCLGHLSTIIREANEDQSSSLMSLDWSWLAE

[7] = tested on: BV-2; test: Antiinflammatory activity in mouse BV2 cells assessed as inhibition of LPS/IFNgamma-induced mPGES1 expression at 0.5 to 4 uM after 24 hrs by Western blot; format: functional, cell-based
[8] = tested on: BV-2; test: Antiinflammatory activity in mouse BV2 cells assessed as inhibition of LPS/IFNgamma-induced TNFalpha production at 1 to 4 uM pre-incubated before LPS/IFNgamma challenge and measured 24 hrs post LPS/IFNgamma challenge by ELISA method; format: functional, cell-based
[9] = target: T2, Nuclear factor NF-kappa-B complex (Homo sapiens) (UniProt Q00653+P19838+Q04206); test: Inhibition of NFkappaB (unknown origin) expressed in HEK293 cells assessed as reduction in TNFalpha-induced gene transcription at 0.5 to 4 uM pre-incubated for 30 mins prior to stimulation with TNFalpha for 6 hrs by luciferase reporter gene assay; format: cell-based
[10] = tested on: BV-2; test: Antiinflammatory activity in mouse BV2 cells assessed as inhibition of LPS/IFNgamma-induced COX2 expression at 0.5 to 4 uM after 24 hrs by Western blot; format: functional, cell-based
[11] = Antiinflammatory activity in mouse BV2 cells assessed as LPS/IFNgamma-induced PGE2 production at 4 uM after 24 hrs by enzyme immunoassay; format: functional, BV-2
[12] = target: T3, MAP kinase p38 (Mus musculus) (UniProt P47811+O08911+Q9WUI1+Q9Z1B7); test: Inhibition of LPS/IFNgamma-induced p38 phosphorylation in mouse BV2 cells at 1 to 4 uM pre-incubated for 30 mins before LPS/IFNgamma challenge for 1 hr by Western blot method; format: cell-based; conditions: BV-2
[13] = tested on: BV-2; test: Inhibition of IKK in mouse BV2 cells assessed as LPS/IFNgamma-induced IkappaB phosphorylation level at 1 uM pre-incubated for 30 mins before LPS/IFNgamma challenge for 1 hr by Western blot method; format: cell-based; set-up: scale not given: the % may be the effect or the level left
[14] = tested on: BV-2; test: Inhibition of IKK in mouse BV2 cells assessed as reduction in LPS/IFNgamma-induced IkappaB phosphorylation level at 4 uM pre-incubated for 30 mins before LPS/IFNgamma challenge for 1 hr by ELISA method; format: cell-based
[15] = target: T4, Inhibitor of nuclear factor kappa-B kinase subunit beta (Mus musculus) (UniProt O88351); test: Inhibition of LPS/IFNgamma-induced IKKbeta phosphorylation in mouse BV2 cells at 1 to 4 uM pre-incubated for 30 mins before LPS/IFNgamma challenge for 1 hr by Western blot method; format: cell-based; conditions: BV-2
T4 sequence (whole entry): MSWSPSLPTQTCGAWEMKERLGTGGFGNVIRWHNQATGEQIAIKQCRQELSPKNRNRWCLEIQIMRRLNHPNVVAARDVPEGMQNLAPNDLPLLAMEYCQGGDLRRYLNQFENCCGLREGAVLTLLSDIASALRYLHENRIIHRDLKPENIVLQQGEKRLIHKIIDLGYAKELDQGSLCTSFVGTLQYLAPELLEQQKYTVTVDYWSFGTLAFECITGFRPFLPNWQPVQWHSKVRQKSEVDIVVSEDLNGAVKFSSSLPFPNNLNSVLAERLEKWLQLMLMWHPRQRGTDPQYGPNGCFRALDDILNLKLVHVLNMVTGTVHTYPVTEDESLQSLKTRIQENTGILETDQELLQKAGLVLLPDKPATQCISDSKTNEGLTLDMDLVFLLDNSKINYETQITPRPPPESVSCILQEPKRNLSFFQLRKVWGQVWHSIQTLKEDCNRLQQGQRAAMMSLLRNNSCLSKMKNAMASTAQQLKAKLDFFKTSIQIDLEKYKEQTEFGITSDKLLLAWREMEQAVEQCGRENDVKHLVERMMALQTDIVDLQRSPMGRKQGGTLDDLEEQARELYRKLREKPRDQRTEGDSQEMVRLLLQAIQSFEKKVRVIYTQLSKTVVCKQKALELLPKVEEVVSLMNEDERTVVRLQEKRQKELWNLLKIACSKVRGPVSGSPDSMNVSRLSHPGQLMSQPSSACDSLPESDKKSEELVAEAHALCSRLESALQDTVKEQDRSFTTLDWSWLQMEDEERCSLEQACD

[16] = tested on: BV-2; test: Inhibition of IKK in mouse BV2 cells assessed as reduction in LPS/IFNgamma-induced IkappaB degradation at 0.5 to 4 uM pre-incubated for 30 mins before LPS/IFNgamma challenge for 1 hr by ELISA method; format: cell-based
[17] = target: T3, MAP kinase p38 (Mus musculus); test: Inhibition of p38 in mouse BV2 cells assessed as reduction in LPS/IFNgamma-induced MAPKAPK2 phosphorylation at 1 to 4 uM pre-incubated for 30 mins before LPS/IFNgamma challenge for 1 hr by Western blot method; format: cell-based; conditions: BV-2
[18] = Toxicity against LPS/IFNgamma-induced mouse BV2 cells assessed as cell viability at 0.5 to 4 uM pre-incubated before LPS/IFNgamma challenge and measured 24 hrs post LPS/IFNgamma challenge by MTT assay; format: cell-based; conditions: bv-2, 24 h
[19] = target: T2, Nuclear factor NF-kappa-B complex (Homo sapiens); test: Inhibition of NFkappaB (unknown origin) expressed in HEK293 cells assessed as TNFalpha-induced gene transcription at 4 uM pre-incubated for 30 mins prior to stimulation with TNFalpha for 6 hrs by luciferase reporter gene assay; format: cell-based; set-up: scale not given: the % may be the effect or the level left
[20] = tested on: BV-2; test: Antiinflammatory activity in mouse BV2 cells assessed as inhibition of LPS/IFNgamma-induced IL6 production at 0.5 to 4 uM pre-incubated before LPS/IFNgamma challenge and measured 24 hrs post LPS/IFNgamma challenge by ELISA method; format: functional, cell-based
[21] = tested on: BV-2; test: Inhibition of IKK in mouse BV2 cells assessed as LPS/IFNgamma-induced IkappaB phosphorylation level at 0.5 uM pre-incubated for 30 mins before LPS/IFNgamma challenge for 1 hr by Western blot method; format: cell-based; set-up: scale not given: the % may be the effect or the level left

T2 sequence (P19838 whole entry, looked up): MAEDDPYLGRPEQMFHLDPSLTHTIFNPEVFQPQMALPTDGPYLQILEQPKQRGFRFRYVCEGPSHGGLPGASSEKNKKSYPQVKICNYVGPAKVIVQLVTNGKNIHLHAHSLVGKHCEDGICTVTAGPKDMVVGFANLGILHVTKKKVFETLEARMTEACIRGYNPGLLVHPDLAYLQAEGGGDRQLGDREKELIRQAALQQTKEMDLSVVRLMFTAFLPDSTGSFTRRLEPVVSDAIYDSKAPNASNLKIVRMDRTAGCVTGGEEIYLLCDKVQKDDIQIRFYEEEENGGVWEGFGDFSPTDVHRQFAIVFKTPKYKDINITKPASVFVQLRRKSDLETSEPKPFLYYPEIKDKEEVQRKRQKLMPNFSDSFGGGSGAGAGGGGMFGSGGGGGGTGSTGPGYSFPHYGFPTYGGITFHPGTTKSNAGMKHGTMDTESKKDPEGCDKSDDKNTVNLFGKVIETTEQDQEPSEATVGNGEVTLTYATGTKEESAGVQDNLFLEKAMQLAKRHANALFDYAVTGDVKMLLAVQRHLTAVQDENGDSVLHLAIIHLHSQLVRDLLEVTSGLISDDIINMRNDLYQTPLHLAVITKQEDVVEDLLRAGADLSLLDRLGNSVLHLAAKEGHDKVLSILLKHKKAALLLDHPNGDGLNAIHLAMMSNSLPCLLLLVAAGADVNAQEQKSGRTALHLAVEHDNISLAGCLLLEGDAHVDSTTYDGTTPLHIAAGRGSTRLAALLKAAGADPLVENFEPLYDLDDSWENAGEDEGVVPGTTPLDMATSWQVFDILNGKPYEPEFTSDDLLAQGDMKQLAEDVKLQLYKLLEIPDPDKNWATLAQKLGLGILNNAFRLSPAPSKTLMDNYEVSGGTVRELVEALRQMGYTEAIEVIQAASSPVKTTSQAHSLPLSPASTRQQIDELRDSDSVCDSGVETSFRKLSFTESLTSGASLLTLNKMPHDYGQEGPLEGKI
T2 sequence (Q00653 whole entry, looked up): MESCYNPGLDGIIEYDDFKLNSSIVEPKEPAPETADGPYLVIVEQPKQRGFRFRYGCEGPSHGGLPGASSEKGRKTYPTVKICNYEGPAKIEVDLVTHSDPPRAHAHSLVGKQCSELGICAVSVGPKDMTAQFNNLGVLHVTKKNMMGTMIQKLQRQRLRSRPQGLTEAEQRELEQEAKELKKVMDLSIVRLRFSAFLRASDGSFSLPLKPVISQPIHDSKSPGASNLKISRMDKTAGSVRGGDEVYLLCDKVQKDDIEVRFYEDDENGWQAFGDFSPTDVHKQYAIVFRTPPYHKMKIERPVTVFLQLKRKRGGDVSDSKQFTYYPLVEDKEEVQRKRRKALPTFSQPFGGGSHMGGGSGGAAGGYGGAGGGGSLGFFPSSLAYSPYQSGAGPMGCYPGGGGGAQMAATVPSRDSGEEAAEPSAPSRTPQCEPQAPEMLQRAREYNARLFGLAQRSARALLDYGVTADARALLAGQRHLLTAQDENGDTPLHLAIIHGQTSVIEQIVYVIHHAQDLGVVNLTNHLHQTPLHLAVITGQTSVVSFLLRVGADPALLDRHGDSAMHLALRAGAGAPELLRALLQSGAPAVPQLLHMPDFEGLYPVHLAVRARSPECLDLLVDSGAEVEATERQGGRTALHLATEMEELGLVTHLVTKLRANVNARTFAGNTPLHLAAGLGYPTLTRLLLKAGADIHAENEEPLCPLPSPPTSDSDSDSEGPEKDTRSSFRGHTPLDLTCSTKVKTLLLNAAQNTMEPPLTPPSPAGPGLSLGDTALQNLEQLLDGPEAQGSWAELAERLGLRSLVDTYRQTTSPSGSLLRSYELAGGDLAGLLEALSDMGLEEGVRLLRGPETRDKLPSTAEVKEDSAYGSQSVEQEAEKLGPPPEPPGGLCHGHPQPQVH
T2 sequence (Q04206 whole entry, looked up): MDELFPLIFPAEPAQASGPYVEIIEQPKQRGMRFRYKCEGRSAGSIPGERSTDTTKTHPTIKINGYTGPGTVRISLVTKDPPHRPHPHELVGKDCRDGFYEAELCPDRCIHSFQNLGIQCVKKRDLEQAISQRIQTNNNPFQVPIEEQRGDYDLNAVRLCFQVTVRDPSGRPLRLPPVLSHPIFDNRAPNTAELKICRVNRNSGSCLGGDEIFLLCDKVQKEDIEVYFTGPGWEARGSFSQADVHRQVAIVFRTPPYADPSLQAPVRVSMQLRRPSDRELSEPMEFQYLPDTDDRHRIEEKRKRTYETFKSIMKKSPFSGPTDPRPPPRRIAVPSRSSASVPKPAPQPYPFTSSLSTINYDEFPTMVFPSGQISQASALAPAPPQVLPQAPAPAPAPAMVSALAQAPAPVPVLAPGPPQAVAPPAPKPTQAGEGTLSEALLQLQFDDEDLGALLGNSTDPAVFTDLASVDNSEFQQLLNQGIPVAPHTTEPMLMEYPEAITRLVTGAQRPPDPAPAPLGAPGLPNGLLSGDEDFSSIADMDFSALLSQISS

## C[C@H]1[C@H](OC(=O)CCC(=O)O)O[C@@H]2O[C@@]3(C)CC[C@H]4[C@H](C)CC[C@@H]1[C@@]24OO3 [ARTESUNATE]
[1]
  inhibition: Active
[2]
  Activity: 55%
[3]
  inhibition: Active
[4]
  Activity: 44.3%
[5]
  Activity: 44.4%
[6]
  inhibition: Active
[7]
  inhibition: Active
[8]
  inhibition: Active
[9]
  inhibition: Active
[10]
  inhibition: Active
[11]
  Activity: 38.8%
[12]
  inhibition: Active
[13]
  Activity: 56.4%
[14]
  inhibition: Active
[15]
  inhibition: Active
[16]
  inhibition: Active
[17]
  inhibition: Active
[18]
  Activity: Non-toxic
[19]
  Activity: 35.4%
[20]
  inhibition: Dose-dependent effect
[21]
  Activity: 68.8%

— ChEMBL document CHEMBL3351624, “A semi-synthetic derivative of artemisinin, artesunate inhibits prostaglandin E2 production in LPS/IFNγ-activated BV2 microglia” (Bioorg Med Chem, 2014)
